Assay results: patent US8962608B2, “Cycloalkylnitrile pyrazole carboxamides as janus kinase inhibitors” (Merck Sharp & Dohme Corp., priority 2011, dated 2015)

What was measured:
[1] = target: JAK1 (recombinant purified GST-tagged catalytic domain) (Homo sapiens (Human), UniProt P23458); experiment: biochemical;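 also: biochemical assay with HTRF read-out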
[2] = target: JAK2 (recombinant purified GST-tagged catalytic domain) (Homo sapiens (Human), UniProt O60674); experiment: biochemical;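 also: biochemical JAK kinase assay with HTRF detection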
JAK2 (recombinant purified GST-tagged catalytic domain), sequence (O60674 849-1124): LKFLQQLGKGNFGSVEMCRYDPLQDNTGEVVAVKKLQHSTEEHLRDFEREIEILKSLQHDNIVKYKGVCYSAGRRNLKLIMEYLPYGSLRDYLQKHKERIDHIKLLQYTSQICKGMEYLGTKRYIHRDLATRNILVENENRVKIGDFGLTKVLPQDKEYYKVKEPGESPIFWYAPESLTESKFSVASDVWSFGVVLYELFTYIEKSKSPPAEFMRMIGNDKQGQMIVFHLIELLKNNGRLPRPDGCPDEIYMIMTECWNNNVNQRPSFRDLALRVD

JAK1 (recombinant purified GST-tagged catalytic domain), sequence (P23458 875-1153): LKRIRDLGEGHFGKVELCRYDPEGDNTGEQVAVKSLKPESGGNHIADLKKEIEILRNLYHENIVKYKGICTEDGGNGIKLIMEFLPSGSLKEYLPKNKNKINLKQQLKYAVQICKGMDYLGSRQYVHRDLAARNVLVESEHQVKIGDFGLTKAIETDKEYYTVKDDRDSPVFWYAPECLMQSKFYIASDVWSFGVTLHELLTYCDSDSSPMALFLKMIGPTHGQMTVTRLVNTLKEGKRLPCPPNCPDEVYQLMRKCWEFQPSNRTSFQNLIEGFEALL

IC50 [1] [nM] | IC50 [2] [nM] | Structure (SMILES)
0.9 | 8 | CS(=O)(=O)N[C@@H]1CC[C@H](n2cc(C(N)=O)c(Nc3ccc(Cl)cc3)n2)[C@@H](C#N)C1 (racemic) [Example 38-3, 3-[(4-chlorophenyl)amino]-1-{(1S,2S,4R and 1R,2R,4S)-2-cyano-4-[(methylsulfonyl)amino]cyclohexyl}-1H-pyrazole-4-carboxamide]
2 | 15 | Cn1cc(-c2ccc(Nc3nn(C4CCCC[C@@H]4C#N)cc3C(N)=O)cn2)cn1 (mixture of isomers) [Example 21-2, 1-[(1S,2S and 1R,2R)-2-cyanocyclohexyl]-3-{[6-(1-methyl-1H-pyrazol-4-yl)pyridin-3-yl]amino)-1H-pyrazole-4-carboxamide]
2 | 97 | C[C@H](N[C@H]1CC[C@H](n2cc(C(N)=O)c(Nc3ccc(Cl)c(F)c3)n2)[C@@H](C#N)C1)C1CC1 (single isomer, unassigned) [Example 28-71, 3-[(4-chloro-3-fluorophenyl)amino]-1-[(1S,2S,4S or 1R,2R,4R)-2-cyano-4-{[(1S or 1R)-1-cyclopropylethyl]amino}cyclo-hexyl]-1H-pyrazole-4-carboxamide]
170 | 320 | N#C[C@H]1CCC[C@H](O)C1n1cc(C(N)=O)c(Nc2ccccc2)n1 (mixture of isomers) [Example 2-7, 1-[(1R,2S,6S and 1S,2R,6R)-2-cyano-6-hydroxycyclohexyl]-3-(phenylamino)-1H-pyrazole-4-carboxamide]
260 | > 1500 | N#C[C@H]1C[C@H](N(CC2CC2)CC2CC2)CC[C@@H]1n1cc(C(N)=O)c(Nc2ccc(C(F)(F)F)cc2)n1 (single isomer, unassigned) [Example 30-15, l-{(1S,2S,4R or 1R,2R,4S)-4-[bis(cyclopropylmethyl)amino]-2-cyanocyclohexyl}-3-{[4-(trifluoromethyl)phenyl]amino}-1H-pyrazole-4-carboxamide]
15 | 79 | N#C[C@H]1CC[C@H](O)CC1n1cc(C(N)=O)c(Nc2ccccc2)n1 (mixture of isomers) [Example 2-12, 1-[(1R,2R,5R and 1S,2S,5S)-2-cyano-5-hydroxycyclohexyl]-3-(phenylamino)-1H-pyrazole-4-carboxamide]
2 | 25 | N#C[C@H]1CCCC[C@@H]1n1cc(C(N)=O)c(Nc2ccc(Cl)cc2)n1 (racemic) [Example 17-104, 3-[(4-chlorophenyl)amino]-1-[(1S,2S and 1R,2R)-2-cyanocyclohexyl]-1H-pyrazole-4-carboxamide]
2 | 9 | N#C[C@H]1C[C@H](OCC2CC2)CC[C@@H]1n1cc(C(N)=O)c(Nc2ccnc(F)c2)n1 (single isomer, unassigned) [Example 26-1, 1-[(1S,2S,4R or 1R,2R,4S)-2-cyano-4-(cyclopropylmethoxy)cyclohexyl]-3-[(2-fluoropyridin-4-yl)amino]-1H-pyrazole-4-carboxamide]
5 | 38 | N#C[C@@H]1C[C@H](C(=O)NC2COC2)CC[C@H]1n1cc(C(N)=O)c(Nc2ccc(Cl)cc2)n1 (single isomer, unassigned) [Example 35-13, 3-[(4-chlorophenyl)amino]-1-[(1R,2R,4R or 1S,2S,4S)-2-cyano-4-(oxetan-3-ylcarbamoyl)cyclohexyl]-1H-pyrazole-4-carboxamide]
0.9 | 4 | N#C[C@H]1CCCC[C@@H]1n1cc(C(N)=O)c(Nc2ccc(S(=O)(=O)NCc3ccccn3)cc2)n1 (single isomer, unassigned) [Example 17-85, 1-[(1R,2R or 1S,2S)-2-cyanocyclohexyl]-3-({4-[(pyridin-2-ylmethyl)sulfamoyl]phenyl}amino)-1H-pyrazole-4-carboxamide]
6 | 73 | Cn1cc(-c2cncc(Nc3nn(C4CCCC[C@@H]4C#N)cc3C(N)=O)c2)cn1 (single isomer, unassigned) [Example 21-1, 1-[(1S,2S or 1R,2R)-2-Cyanocyclohexyl]-3-{[5-(1-methyl-1H-pyrazol-4-yl)pyridin-3-yl]amino}-1H-pyrazole-4-carboxamide]
2 | 270 | C[C@H](N[C@@H]1CC[C@H](n2cc(C(N)=O)c(Nc3ccc(C(F)(F)F)cc3)n2)[C@@H](C#N)C1)C1CC1 (single isomer, unassigned) [Example 28-190, 1-[(1S,2S,4R or 1R,2R,4S)-2-cyano-4-{[(1S)-1-cyclopropylethyl]amino}cyclo-hexyl]-3-{[4-(trifluoromethyl)phenyl]amino}-1H-pyrazole-4-carboxamide]
27 | 186 | N#C[C@H]1C[C@H](NC2(C(F)(F)F)CC2)CC[C@@H]1n1cc(C(N)=O)c(Nc2ccc(Cl)cc2)n1 (single isomer, unassigned) [Example 28-227, 3-[(4-chlorophenyl)amino]-1-[(1S,2S,4R or 1R,2R,4S)-2-cyano-4-{[1-(trifluoro-methyl)cyclopropyl]a-mino}cyclohexyl]-1H-pyrazole-4-carboxamide]
0.55 | 7 | N#C[C@H]1CCCC[C@@H]1n1cc(C(N)=O)c(Nc2cnc3c(c2)CNC3=O)n1 (single isomer, unassigned) [Example 17-76, 1-[(1R,2R or 1S,2S)-2-cyanocyclohexyl]-3-[(7-oxo-6,7-dihydro-5H-pyrrolo[3,4-b]pyridin-3-yl)amino]-1H-pyrazole-4-carboxamide]
0.25 | 1 | COCCNS(=O)(=O)c1ccc(Nc2nn([C@H]3CCCC[C@@H]3C#N)cc2C(N)=O)cc1 (single isomer, unassigned) [Example 17-98, 1-[(1R,2R or 1S,2S)-2-cyanocyclohexyl]-3-({4-[(2-methoxyethyl)sulfamoyl]phenyl}amino)-1H-pyrazole-4-carboxamide]
9 | 59 | CC(C)(O)C1CN(C(=O)[C@@H]2CC[C@@H](n3cc(C(N)=O)c(Nc4ccc(Cl)cc4)n3)[C@H](C#N)C2)C1 (single isomer, unassigned) [Example 35-3, 3-[(4-chlorophenyl)amino]-1-[(1R,2R,4R or 1S,2S,4S)-2-cyano-4-{[3-(1-hydroxy-1-methylethyl)azetidin-1-yl]carbonyl}cyclohexyl]-1H-pyrazole-4-carboxamide]
0.6 | 20 | N#C[C@H]1C[C@@H](N2C[C@@H]3[C@@H](CO)[C@@H]3C2)CC[C@@H]1n1cc(C(N)=O)c(Nc2ccc(C(F)(F)F)cc2)n1 (single isomer, unassigned) [Example 28-34, 1-{(1S,2S,4S or 1R,2R,4R)-2-cyano-4-[(1R,5S,6S or 1S,5R,6R)-6-(hydroxymethyl)-3-azabicyclo[3.1.0]hex-3-yl]cyclohexyl}-3-{[4-(trifluoromethyl)phenyl]amino}-1H-pyrazole-4-carboxamide]
0.5 | 1 | N#C[C@H]1CCCC[C@@H]1n1cc(C(N)=O)c(Nc2ccc(S(=O)(=O)NC3CCCCC3)cc2)n1 (single isomer, unassigned) [Example 17-82, 1-[(1R,2R or 1S,2S)-2-cyanocyclohexyl]-3-{[4-(cyclohexylsulfamoyl)phenyl]amino}-1H-pyrazole-4-carboxamide]
47 | 425 | CC(C)(C)NC(=O)[C@@H]1CC[C@@H](n2cc(C(N)=O)c(Nc3ccc(Cl)cc3)n2)[C@H](C#N)C1 (single isomer, unassigned) [Example 35-35, 1-[(1R,2R,4R or 1S,2S,4S)-4-(tert-butylcarbamoyl)-2-cyanocyclohexyl] 3-[(4-chlorophenyl)amino]-1H-pyrazole-4-carboxamide]
1 | 12 | CNC(=O)O[C@@H]1CCC(n2cc(C(N)=O)c(Nc3ccc(F)cc3)n2)[C@@H](C#N)C1 (mixture of isomers) [Example 34-6, (1R,3S,4S and 1S,3R,4R)-4-{4-carbamoyl-3-[(4-fluorophenyl)aminol-1H-pyrazol-1-yl}-3-cyanocyclohexyl methylcarbamate]
165 | 1000 | N#C[C@H]1C[C@H](N[C@H](C2CC2)C(F)(F)F)CC[C@@H]1n1cc(C(N)=O)c(Nc2ccc(C(F)(F)F)cc2)n1 (single isomer, unassigned) [Example 28-193, 1-[(1S,2S,4R or 1R,2R,4S)-2-cyano-4-{[(1R)-1-cyclopropyl-2,2,2-trifluoroethyl]amino}cyclo-hexyl]-3-{[4-(trifluoromethyl)phenyl]amino}-1H-pyrazole-4-carboxamide]
0.9 | 23 | COCCN[C@H]1CCC(n2cc(C(N)=O)c(Nc3ccc(Cl)cc3)n2)[C@@H](C#N)C1 (single isomer, unassigned) [Example 28-236, 3-[(4-chlorophenyl)amino]-1-{(1S,2S,4S or 1R,2R,4R)-2-cyano-4-[(2-methoxyethyl)amino]cyclo-hexyl}-1H-pyrazole-4-carboxamide]
0.7 | 16 | CN[C@H]1CC[C@H](n2cc(C(N)=O)c(Nc3ccc(Cl)cc3)n2)[C@@H](C#N)C1 (single isomer, unassigned) [Example 28-40, 3-[(4-chlorophenyl)amino]-1-[(1S,2S,4S or 1R,2R,4R)-2-cyano-4-(methylamino)cyclohexyl]-1H-pyrazole-4-carboxamide]
4 | 24 | CC1(N[C@H]2CCC(n3cc(C(N)=O)c(Nc4ccccc4)n3)[C@@H](C#N)C2)COC1 (single isomer, unassigned) [Example 28-230, 1-{(1S,2S,4S or 1R,2R,4R)-2-cyano-4-[(3-methyloxetan-3-yl)amino]cyclohexyl}-3-(phenylamino)-1H-pyrazole-4-carboxamide]
3 | 20 | CC(C)(O)[C@H]1CC[C@H](n2cc(C(N)=O)c(Nc3ccc(Cl)cc3)n2)[C@@H](C#N)C1 (single isomer, unassigned) [Example 36-2, 3-(4-chlorophenylamino)-1-((1R,2R,4R or 1S,2S,4S)-2-cyano-4-(2-hydroxypropan-2-yl)cyclohexyl)-1H-pyrazole-4-carboxamide]
